Data: ChEMBL document CHEMBL2413016, “Synthesis and in vivo evaluation of [(18)F]2-(4-(4-(2-(2-fluoroethoxy)phenyl)piperazin-1-yl)butyl)-4-methyl-1,2,4-triazine-3,5(2H,4H)-dione ([(18)F]FECUMI-101) as an imaging probe for 5-HT1A receptor agonist in nonhuman primates” (Bioorg Med Chem, 2013)

Assays:
[1] = target: 5-hydroxytryptamine receptor 7 (Homo sapiens, UniProt P34969); assay: Binding affinity to 5HT7 receptor (unknown origin)
D(2) dopamine receptor = D(2) dopamine receptor (Homo sapiens, UniProt P14416); assay: Binding affinity to dopamine 2 receptor (unknown origin)
[2] = target: Alpha-2B adrenergic receptor (Homo sapiens, UniProt P18089); assay: Binding affinity to adrenergic alpha2B receptor (unknown origin)
[3] = target: Alpha-2A adrenergic receptor (Homo sapiens, UniProt P08913); assay: Binding affinity to adrenergic alpha2A receptor (unknown origin)
[4] = target: Alpha-1A adrenergic receptor (Homo sapiens, UniProt P35348); assay: Binding affinity to adrenergic alpha1A receptor (unknown origin)
[5] = target: 5-hydroxytryptamine receptor 1B (Homo sapiens, UniProt P28222); assay: Binding affinity to 5HT1B receptor (unknown origin)
[6] = target: 5-hydroxytryptamine receptor 2B (Homo sapiens, UniProt P41595); assay: Binding affinity to 5HT2B receptor (unknown origin)
Histamine H1 receptor = Histamine H1 receptor (Homo sapiens, UniProt P35367); assay: Binding affinity to histamine H1 receptor (unknown origin)
[7] = target: 5-hydroxytryptamine receptor 2A (Homo sapiens, UniProt P28223); assay: Binding affinity to 5HT2A receptor (unknown origin)
Histamine H2 receptor = Histamine H2 receptor (Homo sapiens, UniProt P25021); assay: Binding affinity to histamine H2 receptor (unknown origin)
[8] = Binding affinity to sigma 2 receptor (unknown origin); set-up: species or system Homo sapiens
[9] = target: 5-hydroxytryptamine receptor 5A (Homo sapiens, UniProt P47898); assay: Binding affinity to 5HT5A receptor (unknown origin)
D(1A) dopamine receptor = D(1A) dopamine receptor (Homo sapiens, UniProt P21728); assay: Binding affinity to dopamine 1 receptor (unknown origin)
D(4) dopamine receptor = D(4) dopamine receptor (Homo sapiens, UniProt P21917); assay: Binding affinity to dopamine 4 receptor (unknown origin)
[10] = target: T1, 5-hydroxytryptamine receptor 1A (Homo sapiens, UniProt P08908); assay: Partial agonist activity at human 5HT1A receptor expressed in CHO cells assessed as increase in [35S]GTPgammaS binding; format: functional, cell-based
T1 sequence (P08908 whole entry): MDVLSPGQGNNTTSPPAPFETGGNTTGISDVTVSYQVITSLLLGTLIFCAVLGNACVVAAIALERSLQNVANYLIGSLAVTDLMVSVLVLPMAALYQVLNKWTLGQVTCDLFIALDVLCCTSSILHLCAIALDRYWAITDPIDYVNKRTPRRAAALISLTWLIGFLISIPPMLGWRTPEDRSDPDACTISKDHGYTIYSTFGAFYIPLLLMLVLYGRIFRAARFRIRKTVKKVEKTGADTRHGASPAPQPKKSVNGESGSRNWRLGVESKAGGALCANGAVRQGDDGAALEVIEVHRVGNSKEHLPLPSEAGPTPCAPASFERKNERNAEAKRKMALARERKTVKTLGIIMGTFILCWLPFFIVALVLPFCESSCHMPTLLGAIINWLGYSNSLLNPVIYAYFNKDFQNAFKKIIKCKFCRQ

[11] = target: 5-hydroxytryptamine receptor 1A (Homo sapiens) (UniProt P08908); assay: Partial agonist activity at human 5HT1A receptor expressed in CHO cells assessed as increase in [35S]GTPgammaS binding relative to serotonin; format: functional, cell-based
[12] = target: T1, 5-hydroxytryptamine receptor 1A; assay: Binding affinity to 5HT1A receptor (unknown origin)
[13] = Binding affinity to benzodiazepine receptor in rat brain; format: tissue-based
[14] = target: Sigma non-opioid intracellular receptor 1 (Homo sapiens, UniProt Q99720); assay: Binding affinity to sigma 1 receptor (unknown origin)
[15] = target: 5-hydroxytryptamine receptor 1D (Homo sapiens, UniProt P28221); assay: Binding affinity to 5HT1D receptor (unknown origin)
D(3) dopamine receptor = D(3) dopamine receptor (Homo sapiens, UniProt P35462); assay: Binding affinity to dopamine 3 receptor (unknown origin)
[16] = target: Alpha-2C adrenergic receptor (Homo sapiens, UniProt P18825); assay: Binding affinity to adrenergic alpha2C receptor (unknown origin)
[17] = target: Alpha-1D adrenergic receptor (Homo sapiens, UniProt P25100); assay: Binding affinity to adrenergic alpha1D receptor (unknown origin)
[18] = target: Alpha-1B adrenergic receptor (Homo sapiens, UniProt P35368); assay: Binding affinity to adrenergic alpha1B receptor (unknown origin)

Sequence of 5-hydroxytryptamine receptor 7 (P34969 whole entry): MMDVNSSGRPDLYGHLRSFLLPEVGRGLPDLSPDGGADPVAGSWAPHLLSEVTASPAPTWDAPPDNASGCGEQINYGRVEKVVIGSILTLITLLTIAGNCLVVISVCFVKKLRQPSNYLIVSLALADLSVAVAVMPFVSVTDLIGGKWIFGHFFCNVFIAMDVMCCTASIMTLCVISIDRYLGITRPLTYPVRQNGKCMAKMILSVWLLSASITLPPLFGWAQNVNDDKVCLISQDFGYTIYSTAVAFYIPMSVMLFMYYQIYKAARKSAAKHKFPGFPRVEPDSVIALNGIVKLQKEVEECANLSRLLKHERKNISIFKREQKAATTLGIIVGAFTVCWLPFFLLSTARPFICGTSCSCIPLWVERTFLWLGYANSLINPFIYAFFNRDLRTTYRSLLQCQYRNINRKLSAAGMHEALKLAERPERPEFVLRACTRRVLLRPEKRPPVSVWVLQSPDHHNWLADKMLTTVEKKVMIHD
Sequence of Histamine H2 receptor (P25021 whole entry): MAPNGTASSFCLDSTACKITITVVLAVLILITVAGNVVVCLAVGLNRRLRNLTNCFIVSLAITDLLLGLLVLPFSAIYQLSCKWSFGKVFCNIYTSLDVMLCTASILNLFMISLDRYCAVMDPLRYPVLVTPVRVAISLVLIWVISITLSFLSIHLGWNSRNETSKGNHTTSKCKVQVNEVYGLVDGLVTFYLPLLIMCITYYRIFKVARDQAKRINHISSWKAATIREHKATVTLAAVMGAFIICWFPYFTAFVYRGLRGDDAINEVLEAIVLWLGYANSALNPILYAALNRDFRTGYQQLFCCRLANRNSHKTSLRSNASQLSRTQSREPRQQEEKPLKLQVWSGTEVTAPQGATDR
Sequence of Alpha-1D adrenergic receptor (P25100 whole entry): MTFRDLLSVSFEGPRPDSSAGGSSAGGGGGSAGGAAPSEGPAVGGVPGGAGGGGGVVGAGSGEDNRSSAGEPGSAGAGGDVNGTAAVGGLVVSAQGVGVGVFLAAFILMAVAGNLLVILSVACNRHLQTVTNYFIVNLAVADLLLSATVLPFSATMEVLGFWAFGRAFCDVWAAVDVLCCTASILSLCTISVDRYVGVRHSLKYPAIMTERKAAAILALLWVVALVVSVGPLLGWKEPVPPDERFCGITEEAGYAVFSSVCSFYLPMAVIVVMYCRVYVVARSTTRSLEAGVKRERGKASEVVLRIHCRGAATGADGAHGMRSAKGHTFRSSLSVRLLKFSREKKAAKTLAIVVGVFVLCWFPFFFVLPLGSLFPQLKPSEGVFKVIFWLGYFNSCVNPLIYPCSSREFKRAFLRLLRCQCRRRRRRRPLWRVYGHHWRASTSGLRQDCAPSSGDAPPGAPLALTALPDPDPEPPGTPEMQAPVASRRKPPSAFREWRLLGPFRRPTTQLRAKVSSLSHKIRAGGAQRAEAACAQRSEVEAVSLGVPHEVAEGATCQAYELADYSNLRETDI
Sequence of 5-hydroxytryptamine receptor 2B (P41595 whole entry): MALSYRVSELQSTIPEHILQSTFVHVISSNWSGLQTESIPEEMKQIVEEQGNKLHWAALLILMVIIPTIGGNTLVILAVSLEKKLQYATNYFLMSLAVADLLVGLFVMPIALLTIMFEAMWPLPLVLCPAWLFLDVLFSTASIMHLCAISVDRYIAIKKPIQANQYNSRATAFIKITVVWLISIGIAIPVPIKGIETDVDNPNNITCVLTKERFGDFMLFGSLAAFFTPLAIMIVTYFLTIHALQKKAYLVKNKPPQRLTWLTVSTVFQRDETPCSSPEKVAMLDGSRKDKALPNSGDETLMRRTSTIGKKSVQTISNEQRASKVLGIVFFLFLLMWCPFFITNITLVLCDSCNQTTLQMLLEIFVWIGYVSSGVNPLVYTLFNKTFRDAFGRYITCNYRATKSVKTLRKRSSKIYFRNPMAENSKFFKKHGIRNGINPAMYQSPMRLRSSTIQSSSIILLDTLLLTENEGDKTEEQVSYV
Sequence of Alpha-2C adrenergic receptor (P18825 whole entry): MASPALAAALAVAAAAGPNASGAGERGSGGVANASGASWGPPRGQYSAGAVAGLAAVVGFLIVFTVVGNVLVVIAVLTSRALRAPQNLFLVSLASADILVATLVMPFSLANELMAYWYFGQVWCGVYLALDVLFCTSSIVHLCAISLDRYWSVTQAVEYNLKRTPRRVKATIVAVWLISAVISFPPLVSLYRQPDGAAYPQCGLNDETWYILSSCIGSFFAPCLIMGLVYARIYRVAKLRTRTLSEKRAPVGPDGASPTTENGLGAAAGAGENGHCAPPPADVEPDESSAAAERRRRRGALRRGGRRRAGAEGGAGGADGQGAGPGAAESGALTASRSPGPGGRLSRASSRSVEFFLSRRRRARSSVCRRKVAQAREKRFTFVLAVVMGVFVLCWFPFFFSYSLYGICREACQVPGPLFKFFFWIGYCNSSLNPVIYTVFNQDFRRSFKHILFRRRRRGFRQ
Sequence of D(1A) dopamine receptor (P21728 whole entry): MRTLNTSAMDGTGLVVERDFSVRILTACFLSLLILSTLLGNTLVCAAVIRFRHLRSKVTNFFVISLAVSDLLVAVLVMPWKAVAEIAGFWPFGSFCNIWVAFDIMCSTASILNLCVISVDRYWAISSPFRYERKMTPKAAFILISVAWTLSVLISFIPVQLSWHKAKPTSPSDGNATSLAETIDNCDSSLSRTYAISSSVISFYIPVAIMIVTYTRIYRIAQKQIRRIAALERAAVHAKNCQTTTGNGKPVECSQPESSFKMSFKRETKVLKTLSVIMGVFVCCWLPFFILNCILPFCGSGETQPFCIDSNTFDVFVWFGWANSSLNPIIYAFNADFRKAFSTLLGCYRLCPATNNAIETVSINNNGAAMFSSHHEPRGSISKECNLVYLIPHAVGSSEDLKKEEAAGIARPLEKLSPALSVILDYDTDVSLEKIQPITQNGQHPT
Sequence of 5-hydroxytryptamine receptor 2A (P28223 whole entry): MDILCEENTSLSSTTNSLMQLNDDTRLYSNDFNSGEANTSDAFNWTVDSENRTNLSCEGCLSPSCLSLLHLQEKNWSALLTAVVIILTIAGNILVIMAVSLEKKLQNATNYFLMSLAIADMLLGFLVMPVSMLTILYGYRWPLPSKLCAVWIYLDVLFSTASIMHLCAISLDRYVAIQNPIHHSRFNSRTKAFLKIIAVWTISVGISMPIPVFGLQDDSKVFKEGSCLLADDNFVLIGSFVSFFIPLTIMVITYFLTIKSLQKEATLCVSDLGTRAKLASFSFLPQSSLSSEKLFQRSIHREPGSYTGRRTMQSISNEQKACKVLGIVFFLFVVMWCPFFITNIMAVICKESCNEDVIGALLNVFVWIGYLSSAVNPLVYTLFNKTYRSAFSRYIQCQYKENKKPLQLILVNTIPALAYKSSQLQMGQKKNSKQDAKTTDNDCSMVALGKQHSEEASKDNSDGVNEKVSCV
Sequence of Histamine H1 receptor (P35367 whole entry): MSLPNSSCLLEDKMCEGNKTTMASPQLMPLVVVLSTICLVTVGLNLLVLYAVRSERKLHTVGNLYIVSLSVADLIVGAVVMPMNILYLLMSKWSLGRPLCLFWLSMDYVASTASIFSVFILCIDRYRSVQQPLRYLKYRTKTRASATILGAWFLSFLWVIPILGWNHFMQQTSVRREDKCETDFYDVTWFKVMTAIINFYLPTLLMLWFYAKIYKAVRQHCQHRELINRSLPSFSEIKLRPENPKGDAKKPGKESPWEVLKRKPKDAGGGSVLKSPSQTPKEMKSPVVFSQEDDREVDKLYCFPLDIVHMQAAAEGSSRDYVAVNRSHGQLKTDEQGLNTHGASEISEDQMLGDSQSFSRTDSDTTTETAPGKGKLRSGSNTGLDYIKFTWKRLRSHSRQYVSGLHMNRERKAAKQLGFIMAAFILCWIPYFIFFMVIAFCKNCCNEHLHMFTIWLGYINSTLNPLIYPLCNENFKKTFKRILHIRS
Sequence of 5-hydroxytryptamine receptor 1B (P28222 whole entry): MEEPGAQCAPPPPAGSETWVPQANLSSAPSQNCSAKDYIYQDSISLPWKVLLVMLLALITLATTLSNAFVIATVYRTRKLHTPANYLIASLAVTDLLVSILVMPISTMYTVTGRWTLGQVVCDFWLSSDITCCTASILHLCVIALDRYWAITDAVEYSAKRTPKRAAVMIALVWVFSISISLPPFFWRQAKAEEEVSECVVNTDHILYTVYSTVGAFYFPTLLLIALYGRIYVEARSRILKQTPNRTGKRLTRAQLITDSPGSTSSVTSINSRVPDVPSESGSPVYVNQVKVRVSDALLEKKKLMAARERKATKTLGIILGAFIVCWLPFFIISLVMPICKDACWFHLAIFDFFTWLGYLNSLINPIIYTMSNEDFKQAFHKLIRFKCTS
Sequence of D(3) dopamine receptor (P35462 whole entry): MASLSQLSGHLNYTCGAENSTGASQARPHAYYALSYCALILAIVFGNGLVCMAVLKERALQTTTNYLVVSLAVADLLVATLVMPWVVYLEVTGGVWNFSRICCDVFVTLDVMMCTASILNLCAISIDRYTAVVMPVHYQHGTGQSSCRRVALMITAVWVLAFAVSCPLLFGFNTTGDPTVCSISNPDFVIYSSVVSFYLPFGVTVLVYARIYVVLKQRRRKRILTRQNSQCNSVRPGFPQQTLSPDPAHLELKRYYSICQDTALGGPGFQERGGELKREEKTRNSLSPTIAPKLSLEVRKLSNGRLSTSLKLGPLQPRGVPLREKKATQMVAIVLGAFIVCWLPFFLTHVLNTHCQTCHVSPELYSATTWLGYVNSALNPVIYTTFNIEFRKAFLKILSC
Sequence of Sigma non-opioid intracellular receptor 1 (Q99720 whole entry): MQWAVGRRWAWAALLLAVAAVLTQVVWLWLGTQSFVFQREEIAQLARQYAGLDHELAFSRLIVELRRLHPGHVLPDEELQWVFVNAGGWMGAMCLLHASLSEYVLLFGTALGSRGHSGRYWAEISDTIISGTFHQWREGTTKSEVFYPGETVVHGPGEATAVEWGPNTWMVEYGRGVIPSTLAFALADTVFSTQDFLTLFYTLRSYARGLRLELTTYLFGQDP

With COc1ccccc1N1CCN(CCCCn2ncc(=O)n(C)c2=O)CC1 the Ki [1] was 12.9 nM, the Ki (D(2) dopamine receptor) was > 10000 nM and the Ki [2] was 238 nM. For the same compound, the Ki [3] was 96 nM, the Ki [4] was 6.75 nM and the Ki [5] was 643 nM. For the same compound, the Ki [6] was 73.6 nM, the Ki (Histamine H1 receptor) was 1030 nM and the Ki [7] was 4980 nM. For the same compound, the Ki (Histamine H2 receptor) was 2130 nM, the Ki [8] was 123 nM and the Ki [9] was > 10000 nM. For the same compound, the Ki (D(1A) dopamine receptor) was > 10000 nM, the Ki (D(4) dopamine receptor) was 21 nM and the EC50 [10] was 0.1 nM. The Emax [11] was 80%, the Ki [12] was 0.15 nM and the Ki [13] was > 10000 nM. The Ki [14] was 59 nM, the Ki [15] was 88.3 nM and the Ki (D(3) dopamine receptor) was > 10000 nM. The Ki [16] was 15 nM, the Ki [17] was > 10000 nM and the Ki [18] was > 10000 nM.
